US20210085711A1 (Japan Tobacco Inc., priority 2017, published 2021)

Experiments:
Type in all cases: in vivo, human
[1] = system: patients with hypermenorrhea and/or patients with hypermenorrhea-associated gynecologic diseases (iron-deficiency anemia patients); experiment: Phase II clinical trial of JTT-751: serum ferritin value
Method: (§1) This test was a three-stage safety and efficacy clinical trial at multi-facilities. The first stage was a pre-observation period (Day −40 to Day −1), the second stage was an administration period (Day 1 to Day 48) (efficacy and safety evaluation period), and the third stage was a post-observation period (Day 49 to Day 63) (efficacy and safety evaluation period). The safety evaluation and efficacy evaluation were performed by multi-facility collaboration, placebo control, random allocation, double-blind trial, and parallel group comparison test.
(§2) (1) Japanese patients who are 20 or more and less than 65 years old at the time of agreement and can visit an outpatient clinic (2) Patients who have an Hb value (measured using HemoCue® Hb 201 DM analyzer in the institute of clinical practice) of 7.0 g/dL or more and less than 11.0 g/dL on both the observation start date and Week 0, and the difference between the two days is 1.0 g/dL or less (3) Patients with a TIBC of 360 μg/dL or more or a serum ferritin value of less than 12 ng/mL on the observation start date
(§3) The administration period of the trial drug is seven weeks which starts from the next day of the Week 0 visit to the day before the Week 7 visit, provided that the trial drug is not taken on the scheduled Week 3 visit.
(§4) (2) Subsidiary evaluation items 1) Erythrocyte-related examination values and amount of change from Week 0 at each observation date 2) Iron-related test values and amount of change from Week 0 at each observation date 3) Achievement rate of target Hb value (female; 12.0 g/dL or more, male; 13.0 g/dL or more) at each observation date 4) Achievement rate of 1.0 g/dL or more and achievement rate of 2.0 g/dL or more in Hb value improvement from Week 0 at each observation date 5) Average daily change of Hb value from Week 0 to each observation date
(§5) The blood hemoglobin value (Hb), the serum iron level, the serum ferritin value, the total iron-binding capacity (TIBC) and the transferrin saturation rate (TSAT), and the mean corpuscular volume (MCV) were each examined at the observation start date, Week 0, Week 3, Week 7, the end of administration and the consultation at nine weeks after Week 0; the hepcidin concentration (Hepcidin 25) and the serum soluble transferrin receptor concentration (sTfR) were each examined on Week 0, Week 3 and Week 7 and at the end of administration; and the C-terminal FGF23 value (cFGF23) and the intact FGF23 value (iFGF23) were each examined on Week 0 and Week 7 and at the end of administration.

[2] = system: patients with hypermenorrhea and/or patients with hypermenorrhea-associated gynecologic diseases (iron-deficiency anemia patients); experiment: Phase II clinical trial of JTT-751: hepcidin concentration (Hepcidin 25)
Method: as §1, §2, §3, §4, §5

[3] = system: patients with hypermenorrhea and/or patients with hypermenorrhea-associated gynecologic diseases (iron-deficiency anemia patients); experiment: Phase II clinical trial of JTT-751: total iron-binding capacity (TIBC)
Method: as §1, §2, §3, §4, §5

[4] = 250 mg/day, 9 weeks after Week 0
[5] = 250 mg/day, End of administration
[6] = 250 mg/day, Week 3 (Week 0 not given)
[7] = 500 mg/day, 9 weeks after Week 0
[8] = 500 mg/day, End of administration
[9] = 500 mg/day, Week 3 (Week 0 not given)
[10] = 1000 mg/day, 9 weeks after Week 0
[11] = 1000 mg/day, End of administration
[12] = 1000 mg/day, Week 3 (Week 0 not given)
[13] = 1500 mg/day, 9 weeks after Week 0
[14] = 1500 mg/day, End of administration
[15] = 1500 mg/day, Week 3 (Week 0 not given)
[16] = End of administration, JTT-751 250 mg group
[17] = End of administration, JTT-751 500 mg group
[18] = End of administration, JTT-751 1000 mg group
[19] = End of administration, JTT-751 1500 mg group
[20] = Week 0 (baseline), JTT-751 250 mg group
[21] = Week 0 (baseline), JTT-751 500 mg group
[22] = Week 0 (baseline), JTT-751 1000 mg group
[23] = Week 0 (baseline), JTT-751 1500 mg group

## Ferric citrate [JTT-751]
[1]; [4]
  Ferritin, Mean: 2.88 ng/mL
  Ferritin, Median: 2.60 ng/mL
[1]; [5]
  Ferritin, Mean: 11.38 ng/mL
  Ferritin, Median: 11.45 ng/mL
[1]; [6]
  Ferritin, Mean: 11.16 ng/mL
  Ferritin, Median: 7.70 ng/mL
[1]; 250 mg/day, Week 7
  Ferritin, Mean: 11.38 ng/mL
  Ferritin, Median: 11.45 ng/mL
[1]; [7]
  Ferritin, Mean: 4.28 ng/mL
  Ferritin, Median: 3.60 ng/mL
[1]; [8]
  Ferritin, Mean: 16.12 ng/mL
  Ferritin, Median: 14.30 ng/mL
[1]; [9]
  Ferritin, Mean: 15.26 ng/mL
  Ferritin, Median: 12.40 ng/mL
[1]; 500 mg/day, Week 7
  Ferritin, Mean: 16.12 ng/mL
  Ferritin, Median: 14.30 ng/mL
[1]; [10]
  Ferritin, Mean: 7.51 ng/mL
  Ferritin, Median: 7.20 ng/mL
[1]; [11]
  Ferritin, Mean: 17.02 ng/mL
  Ferritin, Median: 16.30 ng/mL
[1]; [12]
  Ferritin, Mean: 26.96 ng/mL
  Ferritin, Median: 23.20 ng/mL
[1]; 1000 mg/day, Week 7
  Ferritin, Mean: 17.02 ng/mL
  Ferritin, Median: 16.30 ng/mL
[1]; [13]
  Ferritin, Mean: 5.83 ng/mL
  Ferritin, Median: 5.35 ng/mL
[1]; [14]
  Ferritin, Mean: 17.38 ng/mL
  Ferritin, Median: 16.60 ng/mL
[1]; [15]
  Ferritin, Mean: 20.43 ng/mL
  Ferritin, Median: 22.20 ng/mL
[1]; 1500 mg/day, Week 7
  Ferritin, Mean: 17.38 ng/mL
  Ferritin, Median: 16.60 ng/mL
[1]; continuous administration from Week 0 to Week 3
  serum ferritin value (printed: serum iron level), increased to a normal value: 12 to 30 ng/mL
[2]; [16]
  Hepcidin-25, Mean: 2.196 pg/mL
  Hepcidin-25, Median: 1.520 pg/mL
[2]; [17]
  Hepcidin-25, Mean: 4.818 pg/mL
  Hepcidin-25, Median: 3.925 pg/mL
[2]; [18]
  Hepcidin-25, Mean: 11.465 pg/mL
  Hepcidin-25, Median: 9.680 pg/mL
[2]; [19]
  Hepcidin-25, Mean: 11.674 pg/mL
  Hepcidin-25, Median: 8.440 pg/mL
[2]; [20]
  Hepcidin-25, Mean: 0.726 pg/mL
  Hepcidin-25, Median: 0.715 pg/mL
[2]; [21]
  Hepcidin-25, Mean: 0.593 pg/mL
  Hepcidin-25, Median: 0.290 pg/mL
[2]; [22]
  Hepcidin-25, Mean: 0.509 pg/mL
  Hepcidin-25, Median: 0.410 pg/mL
[2]; [23]
  Hepcidin-25, Mean: 0.631 pg/mL
  Hepcidin-25, Median: 0.600 pg/mL
[2]; Week 0, Week 3 and Week 7
  Hepcidin 25 concentration, time-dependent change: increased along with the continuous administration
[2]; Week 3, JTT-751 250 mg group
  Hepcidin-25, Mean: 1.289 pg/mL
  Hepcidin-25, Median: 0.695 pg/mL
[2]; Week 3, JTT-751 500 mg group
  Hepcidin-25, Mean: 1.839 pg/mL
  Hepcidin-25, Median: 0.895 pg/mL
[2]; Week 3, JTT-751 1000 mg group
  Hepcidin-25, Mean: 8.623 pg/mL
  Hepcidin-25, Median: 8.430 pg/mL
[2]; Week 3, JTT-751 1500 mg group
  Hepcidin-25, Mean: 7.813 pg/mL
  Hepcidin-25, Median: 5.940 pg/mL
[2]; Week 7, JTT-751 250 mg group
  Hepcidin-25, Mean: 2.196 pg/mL
  Hepcidin-25, Median: 1.520 pg/mL
[2]; Week 7, JTT-751 500 mg group
  Hepcidin-25, Mean: 4.818 pg/mL
  Hepcidin-25, Median: 3.925 pg/mL
[2]; Week 7, JTT-751 1000 mg group
  Hepcidin-25, Mean: 11.465 pg/mL
  Hepcidin-25, Median: 9.680 pg/mL
[2]; Week 7, JTT-751 1500 mg group
  Hepcidin-25, Mean: 11.674 pg/mL
  Hepcidin-25, Median: 8.440 pg/mL
[3]; [4]
  TIBC, profile from the baseline (value at Week 0), Mean: -42.8 µg/dL
  TIBC, profile from the baseline (value at Week 0), Median: -39.0 µg/dL
[3]; [5]
  TIBC, profile from the baseline (value at Week 0), Mean: -60.1 µg/dL
  TIBC, profile from the baseline (value at Week 0), Median: -62.0 µg/dL
[3]; 250 mg/day, Week 3
  TIBC, profile from the baseline (value at Week 0), Mean: -28.3 µg/dL
  TIBC, profile from the baseline (value at Week 0), Median: -24.0 µg/dL
[3]; 250 mg/day, Week 7
  TIBC, profile from the baseline (value at Week 0), Mean: -60.1 µg/dL
  TIBC, profile from the baseline (value at Week 0), Median: -62.0 µg/dL
[3]; [7]
  TIBC, profile from the baseline (value at Week 0), Mean: -49.6 µg/dL
  TIBC, profile from the baseline (value at Week 0), Median: -49.0 µg/dL
[3]; [8]
  TIBC, profile from the baseline (value at Week 0), Mean: -61.7 µg/dL
  TIBC, profile from the baseline (value at Week 0), Median: -49.5 µg/dL
[3]; 500 mg/day, Week 3
  TIBC, profile from the baseline (value at Week 0), Mean: -30.9 µg/dL
  TIBC, profile from the baseline (value at Week 0), Median: -28.5 µg/dL
[3]; 500 mg/day, Week 7
  TIBC, profile from the baseline (value at Week 0), Mean: -61.7 µg/dL
  TIBC, profile from the baseline (value at Week 0), Median: -49.5 µg/dL
[3]; [10]
  TIBC, profile from the baseline (value at Week 0), Mean: -68.7 µg/dL
  TIBC, profile from the baseline (value at Week 0), Median: -75.0 µg/dL
[3]; [11]
  TIBC, profile from the baseline (value at Week 0), Mean: -80.4 µg/dL
  TIBC, profile from the baseline (value at Week 0), Median: -70.0 µg/dL
[3]; 1000 mg/day, Week 3
  TIBC, profile from the baseline (value at Week 0), Mean: -54.1 µg/dL
  TIBC, profile from the baseline (value at Week 0), Median: -54.0 µg/dL
[3]; 1000 mg/day, Week 7
  TIBC, profile from the baseline (value at Week 0), Mean: -80.4 µg/dL
  TIBC, profile from the baseline (value at Week 0), Median: -70.0 µg/dL
[3]; [13]
  TIBC, profile from the baseline (value at Week 0), Mean: -63.0 µg/dL
  TIBC, profile from the baseline (value at Week 0), Median: -68.5 µg/dL
[3]; [14]
  TIBC, profile from the baseline (value at Week 0), Mean: -79.7 µg/dL
  TIBC, profile from the baseline (value at Week 0), Median: -84.0 µg/dL
[3]; 1500 mg/day, Week 3
  TIBC, profile from the baseline (value at Week 0), Mean: -60.7 µg/dL
  TIBC, profile from the baseline (value at Week 0), Median: -70.0 µg/dL
[3]; 1500 mg/day, Week 7
  TIBC, profile from the baseline (value at Week 0), Mean: -79.7 µg/dL
  TIBC, profile from the baseline (value at Week 0), Median: -84.0 µg/dL
[3]; Week 0, Week 3 and Week 7
  total iron-binding capacity (TIBC), time-dependent change: decreased along with the continuous administration
